Reference: patent publication US8642627B2 (priority 2002, dated 2014)
Read-outs that look alike come from different tables or passages of the source.

Assays:
[1] = aqueous system, 20° C.; cited from earlier work
adult = conditions: cited from earlier work
[2] = cited from earlier work
[3] = Andersen Cascade Impactor (ACI) experiment; assay type: physicochemical
[4] = apparent pH 6.5, 90% ethanol

CN1CCCC1c1cccnc1 (stereo not shown) [nicotine, 3-(1-methyl-2-pyrrolidinyl)-pyridine]
pKa for the acid dissociation constant of the mono protonated form of nicotine [1]: approximately 8.0 | amount that may kill an adult (adult): Approximately forty | pKa (physchem; apparent pKa of nicotine, 90% ethanol, titration curve with sulphuric acid): 6.5 | pKa (physchem; apparent pKa, ethanol-based system, 20° C.): ~6.5 | arterial levels exceeding the venous levels ([2]; in vivo): six- to ten-fold | time to reach the brain after inhalation ([2]; smoking of a cigarette): ten | behaviour of nicotine in the aerosol droplets ([3]; formulation at apparent pH 4.0, nicotine in salt form): remains in the liquid droplets | behaviour of nicotine in the aerosol droplets ([3]; formulation at apparent pH 6.0): escapes from the liquid droplets as a vapor | share of nicotine in its free base form ([3]; formulation at apparent pH 6.0): approximately 15% | share of nicotine in its free base form [4]: 50%
